Measurements as given in patent US11701409B2, “Dosing and use of long-acting CLR/ramp agonists” (Adepthera LLC, priority 2016, dated 2023).
Like-named read-outs stand apart in the source and are kept apart here. No end group written: not given here.

How the values were obtained:
[1] = test system: C57/B6 mice; type: in vivo
Protocol: (§1) To evaluate the effects of the long-acting stable analog on heart failure, we treated 8-week-old C57/B6 mice with doxorubicin (10 mg/kg body weight) to induce cardiomyopathy. After the injection of doxorubicin, the animals were injected with wild-type ADM or the long-acting stable analog twice daily. After five days of treatment, the animals were sacrificed, and hearts were collected for weight determination individually. In addition, we collected blood samples for the determination of aspartate aminotransferase activity. Sham adult mice at the same ages were used as normal controls.
In a separate series of study, we evaluated the effects of stable analog on blood aspartate aminotransferase levels (FIG. 4b).

[2] = test system: C57/B6 mice; experiment: Doxorubicin-induced cardiomyopathy in adult mice, heart weight; type: in vivo; conditions: for average heart weight: sixth day
Protocol: as §1

[3] = test system: normal pregnant Sprague Dawley rats; experiment: Blood pressure after bolus IP injection in instrumented normal pregnant Sprague Dawley rats; type: in vivo, rat; conditions: for duration of sustained reduction of blood pressure (hypotensive effect): bolus IP injection, 100 nmoles/kg, normal pregnant Sprague Dawley rats
Excerpt: (§2) Bolus IP injection of the long-acting stable analog (100 nmoles/kg) led to a sustained reduction of blood pressure for 4 hr in normal pregnant Sprague Dawley rats, whereas the hypotensive effects of wild-type ADM disappeared within 2 hr (FIG. 1a). In addition, we compared the blood pressure-lowering effect of the long-acting stable analog in pregnant Sprague Dawley rats and pregnant spontaneous hypertensive rats (SHR). […] This characteristic not only allows less frequent dosing in clinical condition but also increases the therapeutic index of long-acting CLR/RAMP receptor agonists.

[4] = test system: RUPP pregnant rats; experiment: Reduced uterine perfusion pressure (RUPP) preeclampsia rat model, osmotic mini-pump infusion for 4 days; type: in vivo
Protocol: To evaluate the effects of the long-acting stable analog for the treatment of preeclampsia, resistant hypertension, hypertensive crisis, vascular ischemic injury, and pregnancy hypertension, we tested the analog in a reduced uterine perfusion pressure (RUPP) preeclampsia rat model. The model was first described by Dr. Joey P. Granger et al. (2000, Hypertension 37:1191-1195). Briefly, pregnant rats weighing 200-250 g at 14 days of gestation were anesthetized with pentobarbital (40 mg/kg, i.p.). The lower abdomen area was shaved and the skin was swabbed with surgical scrub (iodine and alcohol). A 3-cm skin incision was made at the midline. After a midline incision, the lower abdominal aorta was isolated and a silver clip (0.203 mm) was placed around the aorta above the iliac bifurcation. Because compensatory blood flow to the placenta occurs via an adaptive increase in […] blood flow during pregnancy, both right and left […] arcades were clipped (silver clip, 0.100 mm). RUPP rats were divided into two groups, and an osmotic mini-pump (ALZET) loaded with saline or the long-acting analog was implanted in the upper abdomen. The mini-pumps delivered the solution at a rate of 1 ul/hr. Sham pregnant rats were used as normal controls.
The incision was closed with absorbable braided surgical suture. After awake, animals were given buprenorphine 0.1 mg/kg s.c. once a day for three days. These procedures reduced uterine blood flow in the gravid rat by >40%, and cause hypertension and intrauterine growth restriction in the fetus.
After 4 days of the treatments, all rats were anesthetized and catheterized for measurement of blood pressure and heart rate. Animals were anesthetized with pentobarbital, and a Mikro-tip catheter (1.0 F pressure catheter, Miller, Tex.) was placed into the right carotid artery. After insertion, the catheter was advanced into the aorta, and stopped at the appearance of arterial pressure curve. The Mikro-tip catheter was connected to a Powerlab system, and blood pressure and heart rate was recorded and saved in a computer. In addition, the blood flow velocity above and below the artery constriction site was determined by a Doppler method.
After the hemodynamic measurement was completed (taking about 0.5-1 hr), rats were euthanized. The fetuses, placenta tissues, and hearts were harvested and weighed individually.

[5] = test system: pregnant SHR rats; experiment: Blood pressure after injection in pregnant spontaneous hypertensive rats (SHR); type: in vivo, rat; conditions: low dose 30 nmoles/kg
Excerpt: as §2

[6] = high dosage 10 μg/kg/hr for four days
[7] = low dose 3.3 μg/kg/hr for four days

| Molecule | blood aspartate aminotransferase level ([1]; mouse, in vivo) | average heart weight ([2]; doxorubicin 10 mg/kg body weight alone (Dox group)) | blood aspartate aminotransferase level ([1]; Dox + stable analog, high dose 50 nM/Kg body weight) | effect on doxorubicin-elevated aspartate aminotransferase level ([1]; Dox + stable analog, low dose 25 nM/Kg BW) | average heart weight ([2]; co-treatment with doxorubicin 10 mg/kg, peptide injected twice daily, five days) | duration of sustained reduction of blood pressure (hypotensive effect) [3] | duration of blood pressure reduction ([3]; low dose 30 nmoles/kg, pregnant Sprague Dawley rats) | average fetus weight [4, 6] | average heart weight [4, 6] | average placenta weight [4, 6] | body weight lost during the four-day experimental period [4, 6] | heart rate [4, 6] | mean arterial pressure [4, 6] | average fetus weight [4, 7] | average placenta weight [4, 7] | mean arterial pressure [4, 7] | duration of hypotensive effects [5] | reduction of doxorubicin-induced loss of heart weight ([2]; co-treatment with doxorubicin 10 mg/kg, peptide injected twice daily, five days, Dox group vs. Dox+ADM group) |
| --- | --- | --- | --- | --- | --- | --- | --- | --- | --- | --- | --- | --- | --- | --- | --- | --- | --- | --- |
| COc1cccc2c1C(=O)c1c(O)c3c(c(O)c1C2=O)C[C@@](O)(C(=O)CO)C[C@@H]3O[C@H]1C[C@H](N)[C@H](O)[C@H](C)O1 [doxorubicin, reference compound] | 300.7±33.6 U/liter | 9.3 ± 0.4 mg |  |  |  |  |  |  |  |  |  |  |  |  |  |  |  |  |
| Ace-K(Pal)GCRFGTCTVQKLAHQIYQFTDKDKDNVAPRSKISPQGY-NH2 (KGCRFGTCTVQKLAHQIYQFTDKDKDNVAPRSKISPQGY; N-acetyl, palmitoyl-Lys, C-terminal amide; MOD_RES (1)..(1) …ON; LIPID (1)..(1) …; MOD_RES (39)..(39) AMIDATION) [long-acting stable analog] |  |  | 200.1±10.0 U/liter | no statistically significant effect | 11.0 ± 0.6 mg | 4 h | 2 h | 483 ± 92 mg | 3.16±0.06 mg per gram body weight | 253 ± 36 mg | 3±3 grams | 379±8 beats/min | 93±5 mmHg | 577 ± 166 mg | 301 ± 46 mg | 107±4 mmHg | over 8 hr |  |
| adrenomedullin (YRQSMNNFQGLRSFGCRFGTCTVQKLAHQIYQFTDKDKDNVAPRSKISPQGY; ends and bridges not checked; cysteine pairing not given here; UniProt P35318 95-146, looked up) [wild-type ADM, wild-type adrenomedullin, 52 amino acids, 1 intramolecular disulfide bond, ligand of CLR/RAMP receptors, reference compound] |  |  |  |  |  | ≤ 2 h |  |  |  |  |  |  |  |  |  |  |  | not statistically significant |
